“And” between values parts separate entries of the source, which are not always exact repeats. Equal values may be shown once. Where only a bound is given, the exact number is not on record here.

The text below walks through data of article PMC8002323 (Molecules, 2021).

Series [1] has as its target T1, Aβ1–42 (Homo sapiens, UniProt P05067). Briefly: Inhibition of self-induced Aβ1–42 aggregation (thioflavin-T fluorescence method). The note with it: read-out: Aβ1–42 Aggreg. Inhib.
Description: Inhibitory capacity of the compounds for the Aβ1–42 aggregation was assessed based on the fluorescence properties of thioflavine T (ThT), measured with a Varian Cary Eclipse spectrofluorometer.
A previously prepared solution of Aβ1–42 was used.
To the resulting alkaline Aβ1–42 solution was added phosphate buffer (pH 8.0). The compounds tested were diluted in MeOH (1 mg/mL) and then further diluted in phosphate buffer. Two different types of experiments were prepared in a final volume of 60 μL. The solution for the control ligand assay consists in 30 µL of phosphate buffer and 30 µL of Aβ1–42 solution, to evaluate the aggregation without any inhibition, while the solution for the ligand assay consists of 20 µL of phosphate buffer, 30 µL of Aβ1–42 solution and 10 µL of the ligand solution, to evaluate the effect of the ligand in the aggregation. For each experiment a blank sample, without Aβ1–42, is used to monitor the effect of the compounds in the fluorescence. These samples were left incubating in a water bath (CERTOMAT WR), for 24 h, at 37 °C with gentle shaking [14].
A glycine-NaOH buffer (pH 8.5) containing ThT (5 μM) was added to each sample. Samples were placed in a microplate and the fluorescence signal was monitored at 446 nm (λexc) and 490 nm (λem) [40].
(2) %I=100−Fi/F0× 100 where Fi and F0 are the fluorescence intensities in the presence and absence of the compound, respectively, minus the fluorescence intensities of the respective blanks. Statistical analysis was performed in Microsoft Office Excel®.
The test system of series [2] is SH-SY5Y human neuroblastoma cells. Nature of the series: Dose-response screening of cell viability (MTT reduction assay). The format is cell-based. The settings on record: SH-SY5Y cells treated 25 h, 2.5–50 μM. As to the method: (§1) SH-SY5Y human neuroblastoma cells (ATCC-CRL-2266) (American Type Culture Collection, Manassas, Virgínia, USA) were plated in DMEM/F12 (Dulbecco’s Modified Eagle Medium/Ham’s F-12 Nutrient Mixture; Thermo Fisher Scientific) with 10% heat inactivated fetal bovine serum, 50 U/mL penicillin and 50 U/mL streptomycin under a humidified atmosphere with 95% relative humidity at 37 °C at a 0.16 × 10^6 cells/mL density. Each of the tested substances (6, 7, 8, 9) were dissolved in DMSO to prepare a stock solution at a 25 mM concentration and stored at −20 °C until further use. SH-SY5Y cells were treated for 25 h with varying concentrations of compounds, in order to select the highest non-toxic concentration. The selected concentrations for each compound were: 40 µM final concentration for 6; 15 µM final concentration for 7; 30 µM final concentration for 8 and 2.5 µM final concentration for 9. […] For the neuroprotection assays, the incubation with Aβ1–42 or L-ascorbic acid/ferrous sulphate treatment was preceded with 1 h incubation of the compounds when needed. Pre-incubation was followed by 24 h treatment of Aβ1–42 or Fe/Asc, accounting a total of 25 h. Aβ1–42 was prepared as 276.9 µM stock in sterile water and administrated in the medium at a 2.5 µM final concentration. Ferrous sulphate was freshly prepared as 0.36 M stock in water and added to the medium at 2.5 mM final concentration. L-ascorbic acid was freshly prepared as 80 mM stock in water and added to the medium at 5 mM final concentration. Aβ1–42 was purchased from Bachem (Torrance, CA, USA) and ferrous sulphate and L-ascorbic acid from Sigma Chemical Co. (St. Louis, MO, USA).
Cellular viability was determined by employing the MTT (3-(4,5-dimethylthiazol-2-yl)-2,5-diphenyltetrazolium bromide) reduction assay, according to the Mosmann method. This colorimetric test consists in the ability of the succinate dehydrogenase enzyme from viable cells to metabolize the MTT into a formazan. In the end of treatments, cells medium was aspirated and cells were washed with 1 × PBS (phosphate-buffered saline) to remove dead cells. MTT solution (200 µL, 0.5 mg/mL) was added to each well and incubated for 2 h protected from light. Formazan precipitates were then dissolved in DMSO and absorbance measured at 570 nm. The ability to reduce MTT was expressed as a percentage of untreated, control cells.

Series [3] deals with T2, AChE (type VI-S, from electric eel) (Electrophorus electricus, UniProt O42275).
T2 construct: purchased
T2 sequence (O42275 24-633): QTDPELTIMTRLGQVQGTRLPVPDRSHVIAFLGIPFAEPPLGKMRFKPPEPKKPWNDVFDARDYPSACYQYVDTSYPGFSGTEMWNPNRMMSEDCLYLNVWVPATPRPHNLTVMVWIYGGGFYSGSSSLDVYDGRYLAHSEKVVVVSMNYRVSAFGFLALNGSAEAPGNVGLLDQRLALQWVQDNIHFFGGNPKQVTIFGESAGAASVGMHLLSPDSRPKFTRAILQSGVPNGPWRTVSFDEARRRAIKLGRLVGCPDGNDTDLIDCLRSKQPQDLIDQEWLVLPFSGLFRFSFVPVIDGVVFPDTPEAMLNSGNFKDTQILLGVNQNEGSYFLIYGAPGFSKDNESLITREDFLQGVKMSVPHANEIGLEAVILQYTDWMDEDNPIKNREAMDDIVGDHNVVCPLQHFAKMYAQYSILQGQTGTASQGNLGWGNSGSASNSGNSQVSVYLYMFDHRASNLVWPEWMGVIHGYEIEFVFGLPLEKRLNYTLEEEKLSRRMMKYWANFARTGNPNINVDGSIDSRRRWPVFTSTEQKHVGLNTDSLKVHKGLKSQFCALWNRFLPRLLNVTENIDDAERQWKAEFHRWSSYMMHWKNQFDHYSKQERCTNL
Nature of the series: biochemical. The settings on record: for IC50: AChE from Electric eel, mean of two independent experiments ± SD, read-out: AChE Inhib. IC50 ± SD; for AChE inhibition (in words): AChE from electric eel. The format is biochemical. How it is done:
The acetylcholinesterase inhibitory activity was assessed by an adaptation of the Ellman’s method. The assay solution contained 4-(2-hydroxyethyl)-1-piperazineethanesulfonic acid (HEPES) buffer (50 mM, pH 8.0), 5,5′-dithiobis-(2-nitrobenzoic acid) (DTNB, 3 mM), the stock solution of each compound in methanol (1 mg/mL), AChE (type VI-S, from electric eel) and the required quantity of methanol to reach the desired volume of sample mixture in a 1 mL cuvette. Samples were incubated for 15 min and then 75 μL of acetylthiocholine iodide (AThChI) solution (16 mM) was added. The reaction was monitored for 5 min at 405 nm. Assays were run with a blank containing all the reagents but AChE. Reaction rates were calculated as well as the enzyme activity. A positive control reaction was performed using methanol as a sample solution. The fraction of enzyme inhibition due to the existence of rising concentration of the test compound was calculated using Equation (1), where vi = starting reaction rate in the presence of inhibitor; vo = starting reaction rate of the control reaction. (1) %I =100−100 × […]
The inhibition curves were achieved by plotting the percentage of enzymatic inhibition against inhibitor concentration and a calibration curve was got from which the linear regression parameters were obtained.

A further series has as its system SH-SY5Y cells. Briefly: Neuroprotective effect on Aβ42-induced toxicity (MTT reduction assay). The format is cell-based, human. The note with it: Aβ42 2.5 μM 24 h, 1 h pre-incubation; 7 (15 µM), 8 (30 µM), 9 (2.5 µM). As to the method:
as §1
Cellular viability was determined by employing the MTT (3-(4,5-dimethylthiazol-2-yl)-2,5-diphenyltetrazolium bromide) reduction assay, according to the Mosmann method. […] Formazan precipitates were then dissolved in DMSO and absorbance measured at 570 nm. The ability to reduce MTT was expressed as a percentage of untreated, control cells.

In series [4] the target is T1, Aβ1–42. The note with it: self-induced aggregation, literature value for DNP; ref [3],[27]; cited from earlier work.

T1 sequence (P05067 672-713 limits assumed): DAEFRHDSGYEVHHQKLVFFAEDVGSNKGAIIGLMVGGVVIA

Regarding `O=S(=O)(NCCN1CCN(Cc2ccccc2)CC1)c1ccc(-c2ccccc2)cc1` [Compound 7, N-(2-(4-benzylpiperazin-1yl)ethyl)-[1,1’-biphenyl]-4-sulfonamide], at Aβ1–42 [1], the inhibition at 40 µM turned out to be 34.6%. Further, the “highest non-toxic concentration (selected concentration)” value in series [2] is 15 µM. For the same compound, the 50% inhibitory concentration (IC50) in series [3] stood at 38.7 ± 0.2 µM. Moreover, the “reversal of neurotoxicity induced by Aβ peptides (in words)” value (“reversal of neurotoxicity induced” for short) in the series on SH-SY5Y cells is on record as “able to relapse the neurotoxicity induced by Aβ peptides”.
Regarding `COc1cc2c(cc1OC)C(=O)C(CC1CCN(Cc3ccccc3)CC1)C2` (stereo not drawn) [DNP, donepezil], on Aβ1–42 [4], the “Aβ1–42 Aggreg. Inhib.” value was <5%.
Consider `O=S(=O)(NCC1CCN(Cc2ccccc2)CC1)c1ccc(-c2ccccc2)cc1` [Compound 9, N-((1-benzylpiperidin-4-yl)methyl)-[1,1’-biphenyl]-4-sulfonamide], for which the inhibition at 40 µM on Aβ1–42 [1] worked out at 60.7%. For the same compound, the “highest non-toxic concentration (selected concentration)” value in series [2] stood at 2.5 µM. Further, the IC50 in series [3] is 1.6 to 6.2 µM and 1.6 µM. In addition, in the series on SH-SY5Y cells, the “reversal of neurotoxicity induced” value is on record as “more modest results in reverting neurotoxicity”.
As for `Cc1ccc(S(=O)(=O)NCCN2CCN(Cc3ccccc3)CC2)cc1` [Compound 5, N-(2-(4-benzylpiperazin-1-yl)ethyl)-4-methylbenzenesulfonamide], on Aβ1–42 [1], the inhibition at 40 µM is 41.8%. In series [3], the half-maximal inhibitory concentration (IC50) was ≥ 100 µM and the “AChE inhibition (in words)” value is on record as “do not show significant inhibition”.
`COc1ccc(S(=O)(=O)NCCN2CCN(Cc3ccccc3)CC2)cc1` [Compound 6, N-(2-(4-benzylpiperazin-1-yl)ethyl)-4-methoxybenzenesulfonamide]: the inhibition at 40 µM on Aβ1–42 [1] amounted to 37.2%. The “highest non-toxic concentration (selected concentration)” value in series [2] is reported as 40 µM. Further, in series [3], the IC50 turned out to be 89 ± 9 µM and the “AChE inhibition (in words)” value is listed as “do not show significant inhibition”.
Take `Nc1c2c(nc3ccccc13)CCCC2` [Tacrine, tacrine, reference compound]: at Aβ1–42 [1], the inhibition at 40 µM came out at 54.5%.
Consider `COc1ccc(S(=O)(=O)NCC2CCN(Cc3ccccc3)CC2)cc1` [Compound 8, N-((1-benzylpiperidin-4-yl)methyl)-4-methoxybenzenesulfonamide], for which the inhibition at 40 µM at Aβ1–42 [1] stood at 64.2%. Besides, in series [2], the “highest non-toxic concentration (selected concentration)” value amounted to 30 µM. In series [3], the IC50 was 1.6 to 6.2 µM and 6.2 µM. The “reversal of neurotoxicity induced” value in the series on SH-SY5Y cells is “more modest results in reverting neurotoxicity”.
